Measurements: patent publication US20250074876A1, “DIPHENOLIC COMPOUNDS AND PREPARATION METHODS THEREOF” (PURPANA (BEIJING) TECHNOLOGIES CO., LTD., priority 2022, published 2025)

Tests used:
melanin cell = assay: B-2 Inhibition test of cell melanin synthesis (chromogenic method); format: cell-based; settings: for inhibitory effect on cellular melanin synthesis (in words): at a lower concentration (no more than 0.10% g/m L); for inhibitory effect on cellular melanin synthesis compared with kojic acid: comparison with kojic acid
Experimental: According to cytotoxicity test data, an inhibition test of cell melanin synthesis was performed within the range allowed by cytotoxicity. The range allowed by cytotoxicity is a range of sample concentration corresponding to a relative cell viability more than 60% in the cytotoxicity test. The samples were grouped according to different concentrations, and a test index was melanin content, a test model was melanin cell, and a detection method is a chromogenic method. Cells at logarithmic growth phase were collected, and the cells were inoculated into 24-well plates at a cell density of 2×10^5 cells/well. After 24 h of incubation in the incubator (37° C., 5% CO2), according to the results of cytotoxicity, the drug was added according to the concentration requirements. The untreated cells were used as a blank control, and three parallel controls were set up in each group. After the drug added, the incubation was continued in the incubator (37° C., 5% CO2) for 48 h. The supernatant was discarded, 1 mL of 1 M NaOH containing 10% DMSO was added, and the plate was placed in a thermostatic oven for incubation at 60° C. for 1 h. After restoring to a room temperature, 200 μL mixed solution of each well was transferred to a 96-well plate, and 1 M NaOH containing 10% DMSO was used as a blank control. The absorbance value was read at 405 nm, and the inhibition rate of cellular melanin synthesis was calculated according to the following equation (5): […]

[1] = system: human melanoma cells (G361); assay: B-1 Cytotoxicity test (MTT, relative cell viability); format: cell-based; settings: 24 h
Experimental: • a) Cell inoculation: human melanoma cells (G361) were inoculated into 96-well plates at a density of 1×10^4 cells/well, and the 96-well plates were placed in an incubator (37° C., 5% CO2) overnight for incubation. • b) Experimental grouping: the experiments were set up with a zeroing group, a control group, a positive control group, and a sample group. In the sample group, each sample was set up with different concentration gradients, and 3 replicate wells were set up under each concentration gradient. • c) Solution preparation: different concentrations of sample working solution were prepared according to the concentrations in Table 4. • d) Drug administration: a drug administration was performed until the cell plating rate in the 96-well plate reaches 40%-60%. In the control group, 200 μL of culture medium containing 10% PBS (Gibco) […] was added to each well; in the positive control group, 200 μL of culture medium containing 10% DMSO was added to each well; in the sample group, 200 μL of culture medium containing the corresponding concentration of sample was added to each well; in the zeroing group, no cell was inoculated and only 200 μL of cell culture medium was added. After the drug administration completed, the 96-well plates were placed in an incubator (37° C., 5% CO2) for incubation. • e) Detection: after incubation for 24 h, the supernatant was discarded, and MTT working solution (0.5 mg/mL) was added and incubated at 37° C. in the dark for 4 h. After incubation, the supernatant was discarded, and 100 μL DMSO was added into each well and the OD value was obtained at 490 nm. • f) Relative cell viability was calculated by the following equation (4): […]

In the case of `CC(c1ccc(O)cc1O)N1CCCCC1=O` (centres unmarked) [I-a], the “inhibitory effect on cellular melanin synthesis (in words)” value (from here on “inhibitory effect … (in words)”) (melanin cell) is reported as “have an inhibitory effect on cellular melanin synthesis” and the “inhibitory effect on cellular melanin synthesis compared with kojic acid” value (from here on “inhibitory effect … compared with kojic acid”) (melanin cell) is reported as “superior to that of kojic acid”.

With `CCC(c1ccc(O)cc1O)N1CCCC1=O` (centres unmarked) [I-d] the “inhibitory effect … (in words)” value (melanin cell) was “have an inhibitory effect on cellular melanin synthesis” and the “inhibitory effect … compared with kojic acid” value (melanin cell) was “superior to that of kojic acid”.

`CCCC(c1ccc(O)cc1O)N1CCCCC1=O` (centres unmarked) [I-e] was tested, and the “inhibitory effect … (in words)” value (melanin cell) was “have an inhibitory effect on cellular melanin synthesis”.

With `CCCC(c1ccc(O)cc1O)N1CCCC1=O` (centres unmarked) [I-f] the “inhibitory effect … (in words)” value (melanin cell) was “have an inhibitory effect on cellular melanin synthesis”.

Work on `CC(c1ccc(O)cc1O)N1CCCCCC1=O` (centres unmarked) [I-g] yielded a Relative cell viability ([1]; human, 0.007813 % (g/mL)) of 117.8165%, a Relative cell viability ([1]; human, 0.015625 % (g/mL)) of 120.6987% and a Relative cell viability ([1]; human, 0.03125 % (g/mL)) of 107.8966%. For the same compound, the Relative cell viability ([1]; human, 0.125 % (g/mL)) was 113.8122%, the Relative cell viability ([1]; human, 0.25 % (g/mL)) was 120.9409% and the Relative cell viability ([1]; human, 0.5 % (g/mL)) was 107.9874%. For the same compound, the “inhibitory effect … (in words)” value (melanin cell) was “have an inhibitory effect on cellular melanin synthesis”.

With `CC(c1ccc(O)cc1O)N1CCCC1=O` (centres unmarked) [I-h] the “inhibitory effect … (in words)” value (melanin cell) was “have an inhibitory effect on cellular melanin synthesis”.

With `CC(c1ccccc1)c1cc(C(C)c2ccccc2)c(O)cc1O` (centres unmarked) [V-a] the “inhibitory effect … (in words)” value (melanin cell) was “have an inhibitory effect on cellular melanin synthesis” and the “inhibitory effect … compared with kojic acid” value (melanin cell) was “superior to that of kojic acid”.

For `CC(c1cc(C(C)N2CCCC2=O)c(O)cc1O)N1CCCC1=O` (centres unmarked) [V-c], the “inhibitory effect … (in words)” value (melanin cell) was “have an inhibitory effect on cellular melanin synthesis”.

Work on `CC(c1ccccc1)c1ccc(O)cc1O` (centres unmarked) [control group, phenylethyl resorcinol, reference compound] yielded a Relative cell viability ([1]; G361 cells, MTT, sample concentration 0.007813 % (g/mL)) of 106.32%, a Relative cell viability ([1]; G361 cells, MTT, sample concentration 0.015625 % (g/mL)) of 114.68% and a Relative cell viability ([1]; G361 cells, MTT, sample concentration 0.03125 % (g/mL)) of 101.15%. The Relative cell viability ([1]; G361 cells, MTT, sample concentration 0.125 % (g/mL)) was 100.10%, the Relative cell viability ([1]; G361 cells, MTT, sample concentration 0.25 % (g/mL)) was 106.07% and the Relative cell viability ([1]; G361 cells, MTT, sample concentration 0.5 % (g/mL)) was 96.77%.
